Laboratory results taken from patent US20250002450A1, “CATIONIC STEROID COMPOUNDS, METHOD OF OBTAINING THEREOF, FORMULATIONS COMPRISING THEREOF AND THEIR USES” (UNIVERSIDADE DO PORTO, priority 2021, published 2025).

Columns and labels:
[1] = tested on: E. coli ATCC 25922; assay: Membrane integrity, propidium iodide influx assay (SYTO 9/PI); assay type: cell-based, Escherichia coli
Experimental: The influx of PI in E. coli ATCC 25922 treated with 2×MIC, MIC, and ½×MIC of compound 1 was evaluated using a commercial kit that includes fluorescent nucleic acid stains SYTO® 9 and PI. SYTO® 9 can enter cells with intact or damaged membranes, generally labeling both, whereas PI only penetrates cells with severe membrane lesions, causing a reduction in SYTO® 9 fluorescence when both dyes are present.
In these assays, COL and AMP were used as controls. COL is a polycationic antimicrobial peptide with a complex mode of action, that ultimately solubilizes the bacterial cell membrane. AMP is an aminopenicillin that inhibits cell wall synthesis by inhibiting penicillin-binding proteins. E. coli ATCC 25922 cells were treated with compound 1 and, at several time-points (0, 1, and 18 h), samples were taken, and SYTO® 9/PI ratio was determined ([FIG. 4]). The entrance of PI is reflected in a reduction of this ratio.
Briefly, E. coli ATCC 25922 colonies from overnight cultures in MHA were suspended in CAMHB to prepare an inoculum with a final concentration of approximately 5×10^5 CFU/mL. The tubes were incubated overnight at 36° C. in a water bath with shaking. Following this, the cell suspensions were centrifuged at 3500 rpm for 15 min, the supernatant was removed, the cells were carefully resuspended in fresh CAMHB and the suspension was adjusted to 0.5 McFarland. An aliquot of this suspension was then added to each tube of CAMHB alone (control) or CAMHB plus an appropriate amount of test compound. […] The tubes were incubated at 36 degrees C. in a water bath with shaking and, at pre-established time points (0, 1, and 18 h), […] aliquots were retrieved for further analysis. After the exposure time, cells were washed two times, resuspended in 0.85% NaCl, and 100 μL of each cell suspension was distributed in the wells of a microtiter plate, in triplicate. 100 μL of a mixture of 30 μM PI and 5 μM SYTO® 9 prepared in ultrapure water were added to each well, and the plates were incubated at room temperature, in the dark, for 15 min. The fluorescence intensity of the stained bacterial suspensions was determined using a microplate reader (Synergy HT, BioTek Instruments, Winooski, VT, USA) by two consecutive measurements with excitation wavelength 485 nm and emission wavelength 528 nm (SYTO® 9) or 590 nm (PI). Data were analyzed by subtracting background fluorescence from each sample, dividing the fluorescence intensity of SYTO® 9 by fluorescence intensity of PI, and the results are presented as a percentage of control. Three independent assays were performed in triplicate for each experimental condition.

[2] = tested on: C. jejuni P5/4; assay: Kirby-Bauer disk diffusion; assay type: cell-based, Campylobacter jejuni; conditions: 15 μg per disk
Experimental: An initial screening of the antibacterial activity of the compounds was performed by the Kirby-Bauer disk diffusion method, as recommended by the Clinical and Laboratory Standards Institute (CLSI). Briefly, sterile 6 mm blank paper disks (Oxoid, Basingstoke, England) impregnated with 15 μg of each compound were placed on inoculated MH agar plates. A blank disk with dimethylsulfoxide (DMSO) was used as a negative control. MH inoculated plates were incubated for 18-20 h at 37 degrees C. At the end of incubation, the inhibition halos where measured. The MIC was used to determine the antibacterial activity of each compound, in accordance with the recommendations of the CLSI. Two-fold serial dilutions of the compounds were prepared in Mueller-Hinton Broth 2 (MHB2—Sigma-Aldrich, St. Louis, MO, USA) within the concentration range of 0.062-64 μg/mL. CTX ranging between 0.031-16 μg/mL was used as a control. Sterility and growth controls were included in each assay. Purity checks and colony counts of the inoculum suspensions were also performed in order to ensure that the final inoculum density closely approximates the intended number (5×10^5 CFU/mL). The MIC was determined as the lowest concentration of compound that inhibited growth of the bacteria. The MBC was assessed by spreading 10 μL of culture collected from wells showing no visible growth on MH agar plates. […]

[3] = tested on: E. coli ATCC 25922; assay: Enzymatic/metabolic activity, MTT assay; assay type: cell-based, Escherichia coli
Experimental: To determine whether compound 1 could also affect enzymatic activity, 2-(4,5-dimethyl-2-thiazolyl)-3,5-diphenyl-2H-tetrazolium bromide (MTT) assay was performed. This assay can also be used as an indirect measure of cellular viability, as tetrazolium salts are reduced to purple formazan by metabolically active cells. E. coli ATCC 25922 cells were treated with compound 1 and COL and AMP were used as controls, as described above. Measurements were made at 0, 1, and 18 h.
Enzymatic activity was evaluated by the MTT assay, as previously described, with some modifications. Cell suspensions of E. coli ATCC 25922 were prepared as described above, as well as test conditions and controls. At each time point (0, 1, and 18 h), 500 μL aliquots were collected, centrifuged at 3500 rpm for 10 min, the supernatant was removed, and 300 μL of MTT solution (0.5 mg/mL in CAMHB, at 36 degrees C.) (Thiazolyl Blue Tetrazolium Bromide, Alfa Aesar, Ward Hill, MA, USA) were added. After a 30 min incubation at 36° C., the insoluble formazan product resulting from the conversion of MTT by metabolically active cells was solubilized with 300 μL of DMSO. 100 μL of each sample were transferred in duplicate to the wells of a microtiter plate and the extent of the reduction of MTT to formazan was quantified by measuring the absorbance at 570 nm (Thermo Scientific Multiskan® EX, Thermo Fisher Scientific, Waltham, MA, USA). Three independent assays were performed in duplicate, and results are expressed as a percentage of untreated control.

C[C@H](CCC(=O)NCCN)[C@H]1CC[C@H]2[C@@H]3CC[C@@H]4C[C@H](O)CC[C@]4(C)[C@H]3C[C@H](O)[C@]12C [Compound 1, (R)—N-(2-aminoethyl)-4-((3R,5R,8R,9S,10S,12S,13R,14S,17R)-3,12-dihydroxy-10,13-dimethylhexadecahydro-1H-cyclopenta[a]phenanthren-17-yl) pentanamida]
reduction in SYTO 9/PI ratio vs untreated control ([1]; 32 μg/mL (MIC), after 1 and 18 h): significant
reduction in SYTO 9/PI ratio vs untreated control ([1]; 64 μg/mL (2×MIC, MBC), 0, 1, 18 h): significant at all time points
Disk diffusion [2]: 8 mm
metabolic activity (MTT) vs untreated control ([3]; 32 μg/mL, after 1 and 18 h): decrease in enzymatic activity
metabolic activity (MTT) vs untreated control ([3]; 64 μg/mL, 0, 1, 18 h): significantly reduced at all time points
